These results are taken from US10865216B2, “Tricyclic Gyrase inhibitors” (MERCK SHARP & DOHME CORP., priority 2012, dated 2020).

Converted amounts (≈) assume the structure as drawn.

Assay [1] has as its system E. coli ATCC 25922. Kind of assay: MIC, E. coli ATCC 25922. It is filed as cell-based. To be noted: Escherichia coli, ATCC25922, E. coli; Alamar Blue read after overnight incubation at 35° C.; read-out: MIC Ec. A general note: Alamar Blue is a resazurin reagent that responds to reducing activity.
In assay [2] the test system is S. aureus ATCC 13709. Kind of assay: MIC, S. aureus ATCC 13709. To be noted: Staphylococcus aureus, ATCC13709, S. aureus; Alamar Blue read after overnight incubation at 35° C.; read-out: MIC Sa. It is filed as cell-based.

The term MIC denotes the lowest concentration that inhibits growth of the organism.

For `CNc1cccc2c1[nH]c1nc(Oc3cncc(C(N)=O)c3)cc(N3CC4C(N)C4C3)c12` (centres unmarked) [Compound 3.19], the figures for the MIC in assay [1] and in assay [2] were 32 mg/L (≈ 74.5 µM) and 8 mg/L (≈ 18.6 µM), respectively.
In the case of `CNc1cccc2c1[nH]c1nc(Oc3cncc(C(=O)O)c3)cc(N3CC4C(N)C4C3)c12` (centres unmarked) [Compound 3.20], the MIC in assay [1] and in assay [2] was greater than 8 mg/L each time.
For the compound `CNc1cccc2c1[nH]c1nc(Oc3ccc(C(=O)OC)nc3)cc(N3CC4C(N)C4C3)c12` (centres unmarked) [Compound 3.21], the MIC in assay [1] was 1 mg/L (≈ 2.25 µM); in assay [2], no more than 0.5 mg/L.
In the case of `CNc1cccc2c1[nH]c1nc(Oc3ccc(C(=O)O)nc3)cc(N3CC4C(N)C4C3)c12` (centres unmarked) [Compound 3.22], the minimum inhibitory concentration (MIC) in assay [1] came out at 64 mg/L (≈ 149 µM); in assay [2] it was 16 mg/L (≈ 37.2 µM).
For the compound `CNc1cccc2c1[nH]c1nc(Oc3cnc4ccoc4c3)cc(N3CC4C(N)C4C3)c12` (centres unmarked) [Compound 3.23], the MIC in assay [1] is 2 mg/L (≈ 4.69 µM); in assay [2] it was no more than 0.5 mg/L.
On to `CNc1cccc2c1[nH]c1nc(Oc3cnc(N4CCOCC4)nc3)cc(N3CC4C(N)C4C3)c12` (centres unmarked) [Compound 3.26], for which the minimum inhibitory concentration (MIC) in assay [1] and in assay [2] was greater than 16 mg/L throughout.
As for `CNc1cccc2c1[nH]c1nc(Oc3cncc(C#N)c3)cc(N3CC4C(N)C4C3)c12` (centres unmarked) [Compound 3.27], the minimal inhibitory concentration (MIC) in assay [1] was determined as 4 mg/L (≈ 9.72 µM); in assay [2], 1 mg/L (≈ 2.43 µM).
With `CNc1cccc2c1[nH]c1nc(Oc3cncnc3)cc(N3CC4C(N)C4C3)c12` (centres unmarked) [Compound 3.28], the MIC in assay [1] was 2 mg/L (≈ 5.16 µM); in assay [2] it was 1 mg/L (≈ 2.58 µM).
In the case of `CNc1cccc2c1[nH]c1nc(Oc3cnc(C)nc3)cc(N3CC4C(N)C4C3)c12` (centres unmarked) [Compound 3.29], the MIC in assay [1] and in assay [2] was no more than 0.5 mg/L each time.
Consider `CNc1cccc2c1[nH]c1nc(Oc3ccc[n+]([O-])c3)cc(N3CC4C(N)C4C3)c12` (centres unmarked) [Compound 3.30], for which the MIC in assay [1] and in assay [2] was 16 mg/L (≈ 39.8 µM) in each case.
Regarding `CNc1cccc2c1[nH]c1nc(Oc3ccc4nccnc4c3)cc(N3CC4C(N)C4C3)c12` (centres unmarked) [Compound 3.31], the results for the MIC in assay [1] and in assay [2] were 8 mg/L (≈ 18.3 µM) and 2 mg/L (≈ 4.57 µM), respectively.
Regarding `CNc1cccc2c1[nH]c1nc(Oc3cnc(N)nc3)cc(N3CC4C(N)C4C3)c12` (centres unmarked) [Compound 3.32], the MIC in assay [1] is 2 mg/L (≈ 4.97 µM); in assay [2], no more than 0.5 mg/L.
On to `CNc1cccc2c1[nH]c1nc(Oc3cncc(F)c3)cc(N3CC4C(N)C4C3)c12` (centres unmarked) [Compound 3.33], for which the MIC was 1 mg/L (≈ 2.47 µM) in assay [1] and no more than 0.5 mg/L in assay [2].
`CNc1cccc2c1[nH]c1nc(Oc3cnc4cccnc4c3)cc(N3CC4C(N)C4C3)c12` (centres unmarked) [Compound 3.34]: the MIC in assay [1] and in assay [2] was no more than 0.5 mg/L throughout.
In the case of `CNc1cccc2c1[nH]c1nc(Oc3cncc(OC)c3)cc(N3CC4C(N)C4C3)c12` (centres unmarked) [Compound 3.35], the MIC is 1 mg/L (≈ 2.4 µM) in assay [1] and no more than 0.5 mg/L in assay [2].
As for `CNc1cccc2c1[nH]c1nc(Oc3cnc4c(c3)ncn4C)cc(N3CC4C(N)C4C3)c12` (centres unmarked) [Compound 3.36], the MIC was 2 mg/L (≈ 4.54 µM) in assay [1] and no more than 0.5 mg/L in assay [2].
As for `CNc1cccc2c1[nH]c1nc(Oc3cncnc3)cc(Oc3cncnc3)c12` [Compound 3.37], the MIC in assay [1] was greater than 64 mg/L; in assay [2], 2 mg/L (≈ 5.19 µM).
For `CNc1cccc2c1[nH]c1nc(Oc3cnc(C)nc3)cc(Oc3cnc(C)nc3)c12` [Compound 3.38] the same measures were greater than 32 mg/L and 1 mg/L (≈ 2.42 µM).
As for `CNc1cccc2c1[nH]c1nc(Oc3ccc[n+]([O-])c3)cc(Oc3cnc(C)nc3)c12` [Compound 3.39], the MIC in assay [1] amounted to 64 mg/L (≈ 154 µM); in assay [2], 2 mg/L (≈ 4.83 µM).
As for `CNc1cccc2c1[nH]c1nc(Oc3cncc(C#N)c3)cc(N3CCC4(CC4N)C3)c12` (centres unmarked) [Compound 3.40], the values for the MIC in assay [1] and in assay [2] were 1 mg/L (≈ 2.35 µM) and no more than 0.5 mg/L, respectively.
For the compound `CNc1cccc2c1[nH]c1nc(Oc3cncnc3)cc(N3CCC4(CC4N)C3)c12` (centres unmarked) [Compound 3.41], the MIC in assay [1] and in assay [2] was no more than 0.5 mg/L each time.
`CNc1cccc2c1[nH]c1nc(Oc3cnc(C)nc3)cc(N3CCC4(CC4N)C3)c12` (centres unmarked) [Compound 3.42]: the MIC in assay [1] was 2 mg/L (≈ 4.81 µM); in assay [2] it was no more than 0.5 mg/L.
With `CNc1cccc2c1[nH]c1nc(Oc3cncc(C#N)c3)cc(N3CC(N)C4(CC4)C3)c12` (centres unmarked) [Compound 3.43], the MIC is 1 mg/L (≈ 2.35 µM) in assay [1] and no more than 0.5 mg/L in assay [2].
Turning to `CNc1cccc2c1[nH]c1nc(Oc3cncc(C#N)c3)cc(N3C[C@@H](NC)C4(CC4)C3)c12` [Compound 3.44], the values for the MIC in assay [1] and in assay [2] were 16 mg/L (≈ 36.4 µM) and 8 mg/L (≈ 18.2 µM), respectively.
For `CNc1cccc2c1[nH]c1nc(Oc3cncnc3)cc(N3CC(N)C4(CC4)C3)c12` (centres unmarked) [Compound 3.45], the minimal inhibitory concentration (MIC) in assay [1] and in assay [2] was no more than 0.5 mg/L each time.
Regarding `CNc1cccc2c1[nH]c1nc(Oc3cncnc3)cc(N3C[C@@H](NC)C4(CC4)C3)c12` [Compound 3.46], the minimal inhibitory concentration (MIC) in assay [1] is 4 mg/L (≈ 9.63 µM); in assay [2] it was 2 mg/L (≈ 4.81 µM).
Turning to `CNc1cccc2c1[nH]c1nc(Oc3cncnc3)cc(N3C[C@H](NC)C4(CC4)C3)c12` [Compound 3.47], the MIC in assay [1] and in assay [2] was no more than 0.5 mg/L each time.
Consider `CNc1cccc2c1[nH]c1nc(Oc3cnc(C)nc3)cc(N3C[C@@H](NC)C4(CC4)C3)c12` [Compound 3.48], for which the MIC in assay [1] amounted to 8 mg/L (≈ 18.6 µM); in assay [2] it was 2 mg/L (≈ 4.66 µM).
`CNc1cccc2c1[nH]c1nc(Oc3cnc(C)nc3)cc(N3C[C@H](NC)C4(CC4)C3)c12` [Compound 3.49]: the MIC in assay [1] and in assay [2] was no more than 0.5 mg/L throughout.
`CNc1cccc2c1[nH]c1nc(Oc3cncc(F)c3)cc(N3CC(N)C4(CC4)C3)c12` (centres unmarked) [Compound 3.50]: the MIC in assay [1] was 2 mg/L (≈ 4.78 µM); in assay [2], no more than 0.5 mg/L.
For `CNc1cccc2c1[nH]c1nc(Oc3cncc(F)c3)cc(N3C[C@@H](NC)C4(CC4)C3)c12` [Compound 3.51] the same measures were 32 mg/L (≈ 74 µM) and 8 mg/L (≈ 18.5 µM).
On to `CNc1cccc2c1[nH]c1nc(Oc3cnc4cccnc4c3)cc(N3CC(N)C4(CC4)C3)c12` (centres unmarked) [Compound 3.52], for which the MIC in assay [1] and in assay [2] was no more than 0.5 mg/L in each case.
For the compound `CNc1cccc2c1[nH]c1nc(Oc3cncnc3)cc(N3CCN(Cc4ccccn4)CC3)c12` [Compound 3.54], the MIC in assay [1] was greater than 32 mg/L; in assay [2] it was 8 mg/L (≈ 17.1 µM).
Consider `CNc1cccc2c1[nH]c1nc(Oc3cncc(C#N)c3)cc(N3CCN(CCN)CC3)c12` [Compound 3.55], for which the MIC in assay [1] is greater than 64 mg/L; in assay [2] it was 64 mg/L (≈ 145 µM).
Consider `CNc1cccc2c1[nH]c1nc(Oc3cncnc3)cc(N3CCN(CCN)CC3)c12` [Compound 3.56], for which the MIC in assay [1] and in assay [2] was greater than 64 mg/L each time.
Consider `CNc1cccc2c1[nH]c1nc(Oc3cncc(C#N)c3)cc(N3CCN(CCN4CCOCC4)CC3)c12` [Compound 3.59], for which the results for the MIC in assay [1] and in assay [2] were greater than 64 mg/L and 4 mg/L (≈ 7.8 µM), respectively.
Take `CNc1cccc2c1[nH]c1nc(Oc3cncnc3)cc(N3CCN(CCN4CCOCC4)CC3)c12` [Compound 3.60]: the MIC was greater than 64 mg/L in assay [1] and 8 mg/L (≈ 16.4 µM) in assay [2].
For the compound `CNc1cccc2c1[nH]c1nc(Oc3cncnc3)cc(N3C[C@@H]4CNC[C@H]4C3)c12` [Compound 3.61], the MIC in assay [1] turned out to be 16 mg/L (≈ 39.9 µM); in assay [2], 4 mg/L (≈ 9.96 µM).
Take `CNc1cccc2c1[nH]c1nc(Oc3cncnc3)cc(N3C/C(=N\OC)[C@@H](N)C3)c12` [Compound 3.62]: the values for the MIC in assay [1] and in assay [2] were 8 mg/L (≈ 19.1 µM) and no more than 0.5 mg/L, respectively.
On to `CNc1cccc2c1[nH]c1nc(Oc3cncnc3)cc(N3CC(F)[C@@H](N)C3)c12` (some centres unmarked) [Compound 3.63], for which the results for the MIC in assay [1] and in assay [2] were 8 mg/L (≈ 20.3 µM) and no more than 0.5 mg/L, respectively.
